In the OligoGym collection one finds 3 h FOB score data, which are given here for 18 substances.

HELM strings list units from the 5' end as sugar, base in round brackets, then linkage (d deoxyribose, r ribose, m 2'-O-methyl, p phosphodiester). Strings are as the collection lists them; they lack the last nucleoside at the 3' end of the tested compound. [moe] = 2'-O-(2-methoxyethyl) (MOE); [sp] = phosphorothioate linkage; [m5C] = 5-methylcytosine

This series has as its target ATXN2. In words: mouse, dose not given. Conditions: ASO.

As for “RNA1{[moe](T)[sp].[moe](A)p.[moe]([m5C])p.[moe](T)p.[moe](T)p.d([m5C])[sp].d(A)[sp].d([m5C])[sp].d(A)[sp].d(T)[sp].d(T)[sp].d(T)[sp].d(G)[sp].d(G)[sp].d(A)[sp].[moe](G)p.[moe]([m5C])p.[moe]([m5C])[sp].[moe]([m5C])}$$$$ (last 3' nucleoside missing)”, the 3 h FOB score is 5.25 score 0-7. In turn, “RNA1{[moe](G)[sp].[moe](T)p.[moe](G)p.[moe](A)p.[moe](G)p.d(T)[sp].d(T)[sp].d([m5C])[sp].d(A)[sp].d([m5C])[sp].d([m5C])[sp].d(T)[sp].d(G)[sp].d([m5C])[sp].d(A)[sp].[moe](T)p.[moe]([m5C])p.[moe]([m5C])[sp].[moe]([m5C])}$$$$ (last 3' nucleoside missing)” showed a 3 h FOB score of 2.25 score 0-7.

The substance “RNA1{[moe]([m5C])[sp].[moe](T)p.[moe](G)p.[moe](T)p.[moe](G)p.d(T)[sp].d(A)[sp].d(T)[sp].d(T)[sp].d(T)[sp].d(T)[sp].d(T)[sp].d([m5C])[sp].d(T)[sp].d(T)[sp].[moe]([m5C])p.[moe]([m5C])p.[moe](T)[sp].[moe]([m5C])}$$$$ (last 3' nucleoside missing)” showed a 3 h FOB score of 0 score 0-7. The same measure for “RNA1{[moe](G)[sp].[moe](T)p.[moe](G)p.[moe](T)p.[moe](T)p.d(T)[sp].d(G)[sp].d(G)[sp].d(G)[sp].d(A)[sp].d(T)[sp].d(G)[sp].d([m5C])[sp].d(T)[sp].d(T)[sp].[moe]([m5C])p.[moe](A)p.[moe](G)[sp].[moe](A)}$$$$ (last 3' nucleoside missing)”: 5.5 score 0-7; for “RNA1{[moe]([m5C])[sp].[moe](T)p.[moe]([m5C])p.[moe](T)p.d([m5C])[sp].d([m5C])[sp].d(A)[sp].d(T)[sp].d(T)[sp].d(A)[sp].d(T)[sp].d(T)[sp].d(T)[sp].d([m5C])[sp].[moe](T)p.[moe](T)p.[moe]([m5C])p.[moe](A)[sp].[moe]([m5C])}$$$$ (last 3' nucleoside missing)”: 3 score 0-7; for “RNA1{[moe](T)[sp].[moe](G)p.[moe](G)p.[moe](A)p.[moe](T)p.[moe](T)p.d([m5C])[sp].d(T)[sp].d(G)[sp].d(T)[sp].d(A)[sp].d([m5C])[sp].d(T)[sp].d(T)[sp].d(T)[sp].d(T)[sp].[moe]([m5C])p.[moe](T)[sp].[moe]([m5C])}$$$$ (last 3' nucleoside missing)”: 1 score 0-7. The same measure for “RNA1{[moe](T)[sp].[moe](T)p.[moe]([m5C])p.[moe](T)p.[moe]([m5C])p.[moe](T)p.d(A)[sp].d(T)[sp].d(T)[sp].d(T)[sp].d([m5C])[sp].d(T)[sp].d(T)[sp].d(T)[sp].d(G)[sp].d(T)[sp].[moe]([m5C])p.[moe]([m5C])[sp].[moe](A)}$$$$ (last 3' nucleoside missing)”: 4 score 0-7; for “RNA1{[moe](G)[sp].[moe](G)p.[moe](A)p.[moe](T)p.[moe](T)[sp].d([m5C])[sp].d(T)[sp].d(G)[sp].d(T)[sp].d(A)[sp].d([m5C])[sp].d(T)[sp].d(T)[sp].[moe](T)p.[moe](T)p.[moe]([m5C])[sp].[moe](T)}$$$$ (last 3' nucleoside missing)”: 2.5 score 0-7; for “RNA1{[moe](T)[sp].[moe]([m5C])p.[moe](T)p.[moe]([m5C])p.[moe]([m5C])[sp].d(A)[sp].d(T)[sp].d(T)[sp].d(A)[sp].d(T)[sp].d(T)[sp].d(T)[sp].d([m5C])[sp].[moe](T)p.[moe](T)p.[moe]([m5C])[sp].[moe](A)}$$$$ (last 3' nucleoside missing)”: 1 score 0-7. With “RNA1{[moe](T)[sp].[moe]([m5C])p.[moe](T)p.[moe]([m5C])p.[moe]([m5C])p.d(A)[sp].d(T)[sp].d(T)[sp].d(A)[sp].d(T)[sp].d(T)[sp].d(T)[sp].d([m5C])[sp].d(T)[sp].d(T)[sp].[moe]([m5C])p.[moe](A)p.[moe]([m5C])[sp].[moe](G)}$$$$ (last 3' nucleoside missing)”, the 3 h FOB score was 0.75 score 0-7.

“RNA1{[moe]([m5C])[sp].[moe](A)p.[moe](G)p.[moe](T)p.[moe](G)p.d(T)[sp].d(T)[sp].d(G)[sp].d([m5C])[sp].d(A)[sp].d([m5C])[sp].d(A)[sp].d(T)[sp].d(A)[sp].d(G)[sp].[moe](G)p.[moe](T)p.[moe](T)[sp].[moe](A)}$$$$ (last 3' nucleoside missing)”: the 3 h FOB score is 5 score 0-7. Under “RNA1{[moe](T)[sp].[moe](G)p.[moe](T)p.[moe](G)p.[moe](T)p.d(T)[sp].d([m5C])[sp].d(A)[sp].d(T)[sp].d(G)[sp].d(A)[sp].d([m5C])[sp].d(T)[sp].d(T)[sp].d(T)[sp].[moe]([m5C])p.[moe](A)p.[moe](A)[sp].[moe](G)}$$$$ (last 3' nucleoside missing)” stands 4.5 score 0-7.

Substance “RNA1{[moe](T)[sp].[moe](T)p.[moe]([m5C])p.[moe](T)p.[moe]([m5C])[sp].d(T)[sp].d(A)[sp].d(T)[sp].d(T)[sp].d(T)[sp].d([m5C])[sp].d(T)[sp].d(T)[sp].[moe](T)p.[moe](G)p.[moe](T)[sp].[moe]([m5C])}$$$$ (last 3' nucleoside missing)” registered a 3 h FOB score of 1 score 0-7. With “RNA1{[moe]([m5C])[sp].[moe](A)p.[moe]([m5C])p.[moe](A)p.[moe]([m5C])p.d(A)[sp].d([m5C])[sp].d(T)[sp].d(T)[sp].d(T)[sp].d(A)[sp].d(A)[sp].d(A)[sp].d(T)[sp].d(A)[sp].[moe]([m5C])p.[moe](A)p.[moe](G)[sp].[moe](G)}$$$$ (last 3' nucleoside missing)”, the 3 h FOB score amounted to 6.5 score 0-7. Under “RNA1{[moe]([m5C])[sp].[moe](G)p.[moe](T)p.[moe](A)p.[moe](T)p.[moe](G)p.d(T)[sp].d(T)[sp].d(T)[sp].d(G)[sp].d(T)[sp].d([m5C])[sp].d(T)[sp].d(G)[sp].d(T)[sp].d([m5C])[sp].[moe](T)p.[moe](T)[sp].[moe](A)}$$$$ (last 3' nucleoside missing)” stands 6.75 score 0-7; under “RNA1{[moe](G)[sp].[moe](T)p.[moe](A)p.[moe]([m5C])p.[moe](A)p.d([m5C])[sp].d(A)[sp].d(G)[sp].d(T)[sp].d(T)[sp].d(T)[sp].d([m5C])[sp].d(A)[sp].d([m5C])[sp].d(T)[sp].[moe](A)p.[moe](G)p.[moe](G)[sp].[moe](T)}$$$$ (last 3' nucleoside missing)”, 3 score 0-7.

The substance “RNA1{[moe]([m5C])[sp].[moe](T)p.[moe](G)p.[moe](G)p.[moe](A)[sp].d(T)[sp].d(T)[sp].d([m5C])[sp].d(T)[sp].d(G)[sp].d(T)[sp].d(A)[sp].d([m5C])[sp].[moe](T)p.[moe](T)p.[moe](T)[sp].[moe](T)}$$$$ (last 3' nucleoside missing)” had a 3 h FOB score of 3.75 score 0-7. In turn, “RNA1{[moe](T)[sp].[moe](T)p.[moe](T)p.[moe](G)p.[moe](A)p.d(A)[sp].d(T)[sp].d(T)[sp].d(A)[sp].d([m5C])[sp].d(A)[sp].d(A)[sp].d(T)[sp].d(G)[sp].d([m5C])[sp].[moe](G)p.[moe](G)p.[moe](T)[sp].[moe](A)}$$$$ (last 3' nucleoside missing)” had a 3 h FOB score of 3.5 score 0-7.
